Patent US8822445B2, “Crystalline form of carbapenem derivative or its hydrates and preparation methods and uses thereof” (priority 2010, dated 2014)
Converted amounts (≈) assume the structure as drawn. “Also recorded” adds a separate entry of the source.

Legend:
[1] = Stability assay at a high temperature of 60° C. (water content, related substances, content); format: physicochemical; details: for Content %: HPLC; for Water content %: Karl Fischer method
Method: The crystalline form I: prepared by referring to the method of example 1 in CN201010178970.2. The batch number is 20100315-4;
The crystalline form II: prepared by example 2 of the Description. The batch number is 040805.
Test condition: sampled after being placed for 5 and 10 days at a high temperature of 60° C., and the results thus obtained were compared with those obtained at day 0 by measuring water content, related substances and contents thereof. The samples were sealed with plastic bags coated with aluminium foils during the assay.
Water content determination is performed according to the first method (the Karl Fischer method) in Chinese Pharmacopoeia, 2010 edition, Appendix VIII M.
Assay is performed by using the control as the external standard according to the high performance liquid chromatography in Chinese Pharmacopoeia, 2010 edition, Appendix VD.
Apparatus: high performance liquid chromatograph (Agilent 1200 series)
Chromatographic column: Agilent C18; filler: 5 μm octadecyl silane boned silica gel; inner diameter: 4.6 mm; length of the column: 150 mm.
Column temperature: 30° C.
Mobile phase: 0.02 M diammonium phosphate (pH=5.2 adjusted by phosphoric acid): acetonitrile=100:7
Determination of related substances is performed by area normalization method according to the high performance liquid chromatography in Chinese Pharmacopoeia, 2010 edition, Appendix VD.
Chromatographic column: Agilent C18; filler: 5 μm octadecyl silane boned silica gel; inner diameter: 4.6 mm; length of column: 150 mm.
Mobile phase: A: 0.02 M diammonium phosphate (pH=5.2 adjusted by phosphoric acid): acetonitrile=95:5.
B: 0.02 M diammonium phosphate (pH=5.2 adjusted by phosphoric acid): acetonitrile=30:70.
Gradient condition: see Table 1 below.

[2] = system: ESBLs negative Escherichia coli; assay: Antibacterial activity assay, standard agar double dilution method, clinically isolated strains; format: cell-based; details: ESBLs negative Escherichia coli clinical isolates
Description: (§1) Test strains: the following clinically isolated strains were provided by public organizations.
(§2) Gram-positive bacteria: methicillin sensitive Staphylococcus aureus (MSSA), and penicillin sensitive Streptococcus pneumoniae;
(§3) Gram-negative bacteria: ESBLs negative Escherichia coli, ESBLs positive Escherichia coli, Haemophilus influenzae, and Moraxelle catarrhalis.
(§4) Test compound: the crystalline form II of compound A
(§5) Experimental method: standard agar double dilution method was adopted.

[3] = system: penicillin sensitive Streptococcus pneumoniae; assay: as above; format: cell-based; details: Penicillin sensitive Streptococcus pneumoniae clinical isolates
Description: as §1, §2, §3, §4, §5

Haemophilus influenzae = assay: as above; format: cell-based; details: Haemophilus influenzae clinical isolates
Description: as §1, §2, §3, §4, §5

Moraxelle catarrhalis = assay: as above; format: cell-based; details: Moraxelle catarrhalis clinical isolates
Description: as §1, §2, §3, §4, §5

[4] = system: methicillin sensitive Staphylococcus aureus (MSSA); assay: as above; format: cell-based; details: MSSA clinical isolates
Description: as §1, §2, §3, §4, §5

[5] = system: ESBLs positive Escherichia coli; assay: as above; format: cell-based; details: ESBLs positive Escherichia coli clinical isolates
Description: as §1, §2, §3, §4, §5

[6] = system: Gram-positive and Gram-negative bacteria; assay: Antibacterial activity assay, overall conclusion; format: cell-based; details: clinically isolated strains
Description: as §1, §2, §3, §4, §5

[7] = 5 days at 60° C. as compared with day 0
[8] = 10 days at 60° C. as compared with day 0

SMILES | Decrease in content % [1, 7] | Decrease in water content % [1, 7] | Increase open ring % [1, 7] | Increase total % [1, 7] | Related substance % Total % ([1]; 5 days at 60° C., sealed) | Related substance % open ring % ([1]; 5 days at 60° C., sealed) | Content % ([1]; 5 days at 60° C.) | Water content % ([1]; 5 days at 60° C.) | Decrease in content % [1, 8] | Decrease in water content % [1, 8] | Increase open ring % [1, 8] | Increase total % [1, 8] | Related substance % Total % ([1]; 10 days at 60° C., sealed) | Related substance % open ring % ([1]; 10 days at 60° C., sealed) | Content % ([1]; 10 days at 60° C.) | Water content % ([1]; 10 days at 60° C.) | Related substance % Total % ([1]; day 0) | Related substance % open ring % ([1]; day 0) | Content % ([1]; day 0) | Water content % ([1]; day 0) | further results
C[C@@H](O)[C@H]1C(=O)N2C(C(=O)O)=C(S[C@@H]3CN[C@H](C(=O)NCc4ccc(S(N)(=O)=O)cc4)C3)[C@H](C)[C@H]12 [crystalline form I, (4R,5S,6S)-6-((R)-1-hydroxyethyl)-4-methyl-7-oxo-3-(((3S,5S)-5-((4-sulfamoylbenzyl)carbamoyl)pyrrolidin-3-yl)thio)-1-azabicyclo[3.2.0]hept-2-ene-2-carboxylic acid] | 3.73% | 0.183% | 0.646% | 0.841% | 2.550% | 0.782% | 96.27% | 7.701% | 3.95% | 0.665% | 0.984% | 1.167% | 2.876% | 1.120% | 96.05% | 7.219% | 1.709% | 0.136% | 100% | 7.884% | –
C[C@@H](O)[C@H]1C(=O)N2C(C(=O)O)=C(S[C@@H]3CN[C@H](C(=O)NCc4ccc(S(N)(=O)=O)cc4)C3)[C@H](C)[C@H]12 [crystalline form II, (4R,5S,6S)-6-((R)-1-hydroxyethyl)-4-methyl-7-oxo-3-(((3S,5S)-5-((4-sulfamoylbenzyl)carbamoyl)pyrrolidin-3-yl)thio)-1-azabicyclo[3.2.0]hept-2-ene-2-carboxylic acid] | 1.57% | 0.026% | 0.632% | 0.527% | 1.573% | 0.789% | 98.43% | 8.290% | 2.24% | 0.402% | 0.944% | 0.853% | 1.899% | 1.101% | 97.76% | 7.914% | 1.046% | 0.157% | 100% | 8.316% | stability as compared with the crystalline form I ([1]; 5 and 10 days at 60° C.): superior stability; also recorded: better than that of the crystalline form I; MIC90 [2]: 0.016 µg/mL (≈ 0.0305 µM); MICmode [2]: 0.016 mg/L; MIC90 [3]: 0.031 µg/mL (≈ 0.0591 µM); MICmode [3]: 0.008 mg/L; MIC90 (Haemophilus influenzae): 0.125 µg/mL (≈ 0.238 µM); MICmode (Haemophilus influenzae): 0.062 mg/L; MIC90 (Moraxelle catarrhalis): 0.008 µg/mL (≈ 0.0152 µM); MICmode (Moraxelle catarrhalis): 0.004 mg/L; MICmode [4]: 0.062 mg/L; MIC90 ([4]; Staphylococcus aureus): 0.062 µg/mL (≈ 0.118 µM); MIC90 [5]: 0.25 µg/mL (≈ 0.477 µM); MICmode [5]: 0.016 mg/L; antibacterial activity [6]: excellent antibacterial activity against both Gram-positive and Gram-negative bacteria
